Laboratory results as given in US20060128643A1, “Compositions containing a combination of a creatine compound and a second agent” (The General Hospital Corporation, priority 1998, published 2006).

Experiments:
[1] = test system: malonate striatal lesions; conditions: cited from earlier work; for protection against lesions in the malonate animal model: in vivo
[2] = cited from earlier work
MPTP toxicity = conditions: mice; cited from earlier work
[3] = test system: MPTP neurotoxicity (dopamine depletion); conditions: animal model of Parkinson's disease; cited from earlier work
[4] = rats receiving dietary 1% cyclocreatine; cited from earlier work
[5] = test system: MPTP induced dopaminergic toxicity; assay: MPTP model for Parkinson's disease: striatal dopamine, DOPAC, HVA; assay type: in vivo, male Swiss Webster mice
Method: The effect of two representative creatine compounds, creatine and cyclocreatine, were evaluated using this model. Creatine and cyclocreatine were administered in the initial pilot experiment as 1% formulation in the feed of animals, and was administered for three weeks before MPTP treatment. MPTP was administered intraperitoneally at a dose of 15 mg/kg every 2 hours for five injections. The animals then remained on either creatine or cyclocreatine supplemented diets for 1 week before sacrifice. The mice examined were male Swiss Webster mice weighing 30-35 grams obtained from Taconic Farms. Control groups received either normal saline or MPTP hydrochloride alone. MPTP was administered in 0.1 ml of water. The MPTP was obtained from Research Biochemicals. Eight to twelve animals were examined in each group. Following sacrifice the two striata were rapidly dissected and placed in chilled 0.1 M perchloric acid. Tissue was subsequently sonicated, and aliquots were taken for protein quantification using a fluorometer assay. Dopamine, 3,4-dihydroxyphenylacetic acid (DOPAC), and homovanillic acid (HVA) were quantified by HPLC with 16 electrode electrochemical detection. Concentrations of dopamine and metabolites were expressed as nmol/mg protein. The statistical significance of differences was determined by one-way ANOVA followed by Fisher PLSDpost-hoc test to compare group means.
A dose response study was conducted where the creatine dose was 0.25%-3.0% of the diet and cyclocreatine 0.25-1.0% of the diet.

[6] = feeding animals, e.g. 1% dietary; cited from earlier work
[7] = test system: malonate induced striatal lesions; assay: Malonate model of Huntington's disease: striatal lesion volume (Example 1); assay type: in vivo, rats
Method: Oral administration of creatine and its analogue cyclocreatine were examined to determine their ability to attenuate malonate lesions. Creatine was administered orally to rats in their feed at doses of 0.25-3.0% of the diet. Cyclocreatine was administered at 0.2-1.0%. Controls received unsupplemented otherwise identical diets. The compounds were administered for two weeks prior to the administration of malonate and then for a further week prior to sacrifice. Malonate was dissolved in distilled deionized water and the pH wad adjusted to 7.4 with 0.1 m HCl. Intrastriatal injections of 1.5 ul of malonate containing 3 μmol were made into the striatum at the level of the bregma 2.4 mm lateral to the midline and 4.5 mm ventral to the dura. Animals were sacrificed at 7 days by decapitation, and the brains were quickly removed and placed in ice cold 0.9% saline solution. Brains were sectioned at 2 mm intervals. Slices were then placed posterior side down in 2% 2,3,5-triphenyltetrazolium chloride. Slices were stained in the dark at room temperature for 30 minutes and then removed and placed in 4% paraformaldehyde, pH 7.3. Lesions, noted by pale staining, were evaluated on the posterior surface of each section using a Bioquant 4 system by an experienced histologist blinded to experimental conditions. These measurements have been validated by comparing them to measurements obtained on adjacent Nissl stain sections.

[8] = up to 1% of diet for 2 weeks or for over 4 weeks; cited from earlier work
[9] = cited from earlier work; remark: listed apart in the source
creatine kinase = creatine kinase (Oryctolagus cuniculus, UniProt P00563); conditions: cited from earlier work
creatine kinase, sequence (P00563 whole entry): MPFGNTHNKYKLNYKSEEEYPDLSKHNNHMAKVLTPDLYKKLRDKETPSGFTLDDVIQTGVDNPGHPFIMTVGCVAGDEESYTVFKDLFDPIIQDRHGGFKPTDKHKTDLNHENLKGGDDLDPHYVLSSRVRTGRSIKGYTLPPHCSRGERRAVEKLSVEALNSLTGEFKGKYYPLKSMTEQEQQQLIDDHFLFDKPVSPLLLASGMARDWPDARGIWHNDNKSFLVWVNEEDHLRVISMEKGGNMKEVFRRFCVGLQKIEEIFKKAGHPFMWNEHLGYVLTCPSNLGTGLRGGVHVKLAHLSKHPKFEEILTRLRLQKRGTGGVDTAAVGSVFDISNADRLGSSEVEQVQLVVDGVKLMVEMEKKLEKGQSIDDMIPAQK

[10] = test system: malonate lesions (striatal); assay: Malonate striatal lesions, creatine and nicotinamide (Example 4); assay type: in vivo, male Sprague-Dawley rats; conditions: creatine 1% in the diet, nicotinamide 0.5% in the drinking water; malonate 3 μmol intrastriatal
Method: Studies of the neuroprotective effects of creatine and nicotinamide were carried out in 250 to 300 g male Sprague-Dawley rats. Creatine was administered orally to rats in their feed at a dose of 1% in the diet. Nicotinamide was administered orally with apple juice at a dose of 0.5% in the drinking water. Rats were treated for one week prior to intracerebral injectior˜s. Animals then remained on the control or supplemented diets for one week prior to being sacrificed. Eleven to 12 animals were examined in each experimental group. NMDA was administered at a doge of 240 nmol in 1 μl. AMPA was administered at a dose of 30 nmol in 1 μl and kainic acid was administered at dose of 5 nmol in 1 μl. Malonate was dissolved in distilled deionized water and the pH was adjusted to 7.4 with HCl. Intrastriatal injections of 3 μmol of malonate in 1.5 μl were made with a 10 μl Hamiiton syringe fitted with a 26 gauge blunt tip needle, into the left striatum at the level of the bregma, 2.4 mm lateral to the midline and 4.5 mm ventral to the dura as described previously [Matthews, R. T et al. J. Neurosci., 18 (1998) 156-163]. […] Lesions noted by pale staining were evaluated on the posterior surface of each section using a Bioquant 4 system, which calculates the volume of the lesions in each section, by an experienced histologist blinded to experimental conditions. […]

[11] = intravenous injection, up to 8 grams/day, patients with cardiac diseases; cited from earlier work
[12] = dose response study, 0.5% of the diet

Q: With COC1=C(OC)C(=O)C(C/C=C(\C)CC/C=C(\C)CC/C=C(\C)CC/C=C(\C)CC/C=C(\C)CC/C=C(\C)CC/C=C(\C)CC/C=C(\C)CC/C=C(\C)CCC=C(C)C)=C(C)C1=O [CoQ10, 2,3 dimethoxy-5 methyl-6-decaprenyl benzoquinone] as the molecule, how does the “ATP depletion produced by malonate in vivo” value [1] read?
A: The value was “attenuated ATP depletion”.

Q: What about the “protection against lesions in the malonate animal model” value [1] of the same molecule?
A: The value was “dose dependent protection”.

Q: What about the “solubility in chloroform and carbon tetrachloride” value [2] of the same molecule?
A: The value was “very soluble”.

Q: And the solubility in water [2]?
A: The solubility in water was “insoluble in water”.

Q: What about the “protection against MPTP toxicity” value (MPTP toxicity) of the same molecule?
A: Its value is “significantly protect”.

Q: For CC(C)(C)[N+]([O-])=Cc1ccccc1S(=O)(=O)O [N-tert-a-(2-sulfophenyl) nitrone, reference compound], which “protection against dopamine depletion” value [3] is on record?
A: The value was “effective in inhibiting moderate dopamine depletion”.

Q: Which results are given for NC1=NCCN1CC(=O)O [cyclocreatine, 1-carboxymethyl-2-iminoimidazolidine]?
A: tissue uptake [4]: taken up by muscle, heart and brain; effect against MPTP induced depletions of homovanillic acid ([5]; 1% in feed, pilot experiment): effective; neuroprotection against MPTP induced dopamine depletions ([5]; 1% in feed, pilot experiment): significant neuroprotection; neuroprotective effect compared with creatine ([5]; 1% in feed, pilot experiment): greater than that seen with creatine alone; protection against DOPAC depletions induced by MPTP ([5]; 1% in feed, pilot experiment, MPTP 15 mg/kg i.p. x5): significantly protected; effects on the dopamine metabolites HVA and DOPAC ([5]; dose response study (creatine 0.25%-3.0%; cyclocreatine 0.25-1.0% of the diet)): neuroprotection effects; neuroprotection against MPTP induced dopamine depletions [5, 12]: significant protection; protection against HVA depletion [5, 12]: not seen; neuroprotection against MPTP induced dopamine depletions ([5]; dose response study, 1.0% of the diet): significant protection; accumulation in organs [6]: accumulation of cyclocreatine in different organs in mM concentrations; neuroprotection against malonate induced striatal lesions ([7]; 1% in the diet): significant; neuroprotection against malonate induced striatal lesions, dose response ([7]; increasing doses in the diet (creatine 0.25-3%; cyclocreatine 0.2-1.0%)): dose dependent neuroprotective effects; protection against striatal malonate lesions ([7]; oral supplementation in feed, 2 weeks before and 1 week after intrastriatal malonate 3 μmol): protected against striatal malonate lesions; gross adverse effects [8]: without gross adverse effects; mortality ([9]; diet containing 1% cyclocreatine, in the presence of antibiotics): without significant mortality; growth versus control chicks ([9]; in vivo): grew more slowly

Q: Which “inactivation of creatine kinase” value (creatine kinase) does the source give for N=C(N)N(CC(=O)O)CC1CO1 (centres unmarked) [epoxycreatine] here?
A: Its value is “completely and irreversibly inactivate”.

Q: With NC(=O)c1cccnc1 [nicotinamide] as the molecule, how does the “ATP depletion produced by malonate in vivo” value [1] read?
A: Its value is “attenuated ATP depletion”.

Q: What about the “protection against lesions in the malonate animal model” value [1] of the same molecule?
A: Its value is “dose dependent protection”.

Q: And the “protection against dopamine depletion” value [3]?
A: Its value is “effective in inhibiting moderate dopamine depletion”.

Q: What about the “neuroprotective effect against malonate lesions (striatal lesion volume)” value [10] of the same molecule?
A: The value was “did not reach significance”.

Q: For “N-phosphoryl creatine [creatine phosphate]”, which adverse side effects [11] is on record?
A: The adverse side effects was “no adverse side effects”.

Q: Which “inactivation of creatine kinase” value (creatine kinase) does the source give for isoepoxycreatine here?
A: Its value is “completely and irreversibly inactivate”.
